Source: the supplement of paper PMC4862054

Assays:
Details in all cases: incubation time: 72 h
[1] = system: BT-474; experiment: normalised viability (% of control), CellTiter-Blue; higher = more viable cells (about 100 = DMSO control)
How it was run: (§1)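 Each entry is normalised viability at a single listed concentration within a series. It comes from breast cancer cell lines incubated 72 h with compound in 384-well plates, then measured with CellTiter-Blue fluorescence at 560/590 nm. Every plate was normalised between vehicle (100) and a positive kill control (0).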

[2] = system: BT-549; experiment: as above
How it was run: as §1

[3] = system: CAL-51; experiment: as above
How it was run: as §1

[4] = system: HCC1143; experiment: as above
How it was run: as §1

[5] = system: HCC1599; experiment: as above
How it was run: as §1

[6] = system: HCC1937; experiment: as above
How it was run: as §1

[7] = system: Hs578T; experiment: as above
How it was run: as §1

[8] = system: MDA-MB-436; experiment: as above
How it was run: as §1

[9] = system: MFM-223; experiment: as above
How it was run: as §1

[10] = system: BT-474; experiment: drug sensitivity score (DSS), CellTox Green (DSS (AUC-based score)); higher = stronger drug effect (viability inhibition or cytotoxicity); extreme values may be limits of the assay
How it was run: (§2)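 Breast cancer cell lines, seeded as 20 µl suspension, were incubated 72 h with compound in 384-well plates at 5 concentrations in 10-fold steps over a 10,000-fold range set for each compound. Fluorescence from CellTox Green was read at 485/520 nm before CellTiter-Glo luminescence, which was read after 10 min at room temperature. Every plate was normalised to 0.1 % DMSO and a positive kill control, and the drug sensitivity score was taken from the area under the fitted dose-response curve.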

[11] = system: BT-549; experiment: as above
How it was run: as §2

[12] = system: CAL-120; experiment: as above
How it was run: as §2

[13] = system: CAL-148; experiment: as above
How it was run: as §2

[14] = system: CAL-51; experiment: as above
How it was run: as §2

[15] = system: CAL-85-1; experiment: as above
How it was run: as §2

[16] = system: DU-4475; experiment: as above
How it was run: as §2

[17] = system: HCC1143; experiment: as above
How it was run: as §2

[18] = system: HCC1599; experiment: as above
How it was run: as §2

[19] = system: HCC1937; experiment: as above
How it was run: as §2

[20] = system: HDQ-P1; experiment: as above
How it was run: as §2

[21] = system: Hs578T; experiment: as above
How it was run: as §2

[22] = system: MCF-10A; experiment: as above
How it was run: as §2

[23] = system: MDA-MB-231; experiment: as above
How it was run: as §2

[24] = system: MDA-MB-453; experiment: as above
How it was run: as §2

[25] = system: MFM-223; experiment: as above
How it was run: as §2

C[C@@H]1C=C2C(=O)O[C@@H]3CC[C@H](C1)[C@]23O [Galiellalactone]
normalised viability [%]
Details | [1] | [2] | [3] | [4] | [5] | [6] | [7] | [8] | [9]
15 nM | – | – | 108 | – | – | – | – | – | –
50 nM | 131 | 83.9 | – | 90.8 | 95.2 | 132 | 121 | 98.2 | 90.6
150 nM | – | – | 104 | – | – | – | – | – | –
500 nM | – | – | 102 | – | – | – | – | – | –
5000 nM | 98.9 | 59.9 | – | 104 | 89.8 | 79.4 | 115 | 76.6 | 95.5
50000 nM | 27.4 | 7.58 | – | 86.9 | 67.5 | 22.8 | 50.9 | 21.9 | 40.4

Details | drug sensitivity score
[10] | 0
[11] | 0
[12] | 0
[13] | 0
[14] | 0
[15] | 1.02
[16] | 0
[17] | 0
[18] | 0
[19] | 0
[20] | 0
[21] | 0
[22] | 0
[23] | 0
[24] | 0
[25] | 0

CN1CCN(c2ccc3nc(-c4c(N)c5c(F)cccc5[nH]c4=O)[nH]c3c2)CC1 [Dovitinib]
normalised viability [%]
Details | [1] | [2] | [3] | [4] | [5] | [6] | [7] | [8] | [9]
3 nM | – | – | 119 | – | – | – | – | – | –
10 nM | 111 | 83 | – | 86.9 | 98 | 116 | 106 | 86.7 | 80.5
30 nM | – | – | 113 | – | – | – | – | – | –
100 nM | – | – | 107 | – | – | – | – | – | –
1000 nM | 97.4 | 97.1 | – | 87.9 | 98.8 | 80.7 | 99.3 | 97 | 56.4
10000 nM | 121 | 89 | – | 69.8 | 89 | 76.9 | 96 | 81.1 | 61

Details | drug sensitivity score
[10] | 0
[11] | 0
[12] | 0
[13] | 0
[14] | 0
[15] | 0
[16] | 0
[17] | 0
[18] | 0
[19] | 0
[20] | 0
[21] | 4.14
[22] | 0
[23] | 0.731
[24] | 0
[25] | 0

O=c1[nH]cc(F)c(=O)[nH]1 [Fluorouracil]
normalised viability [%]
Details | [1] | [2] | [3] | [4] | [5] | [6] | [7] | [8] | [9]
3 nM | – | – | 105 | – | – | – | – | – | –
10 nM | 108 | 101 | – | 99.5 | 102 | 90.6 | 111 | 103 | 106
30 nM | – | – | 100 | – | – | – | – | – | –
100 nM | – | – | 92.9 | – | – | – | – | – | –
1000 nM | 108 | 90.3 | – | 91 | 96.1 | 112 | 106 | 87.8 | 98.5
10000 nM | 94 | 74.2 | – | 64.9 | 76.9 | 75.3 | 55.6 | 73.5 | 94.3

Details | drug sensitivity score
[10] | 0
[11] | 0
[12] | 0
[13] | 0
[14] | 0
[15] | 0
[16] | 0
[17] | 0
[18] | 0
[19] | 0
[20] | 0
[21] | 0
[22] | 0
[23] | 0
[24] | 0
[25] | 0

COC1=CC(c2cc3ccccc3[nH]2)=N/C1=C\c1[nH]c(C)cc1C [Obatoclax]
normalised viability [%]
Details | [1] | [2] | [3] | [4] | [5] | [6] | [7] | [8] | [9]
3 nM | – | – | 107 | – | – | – | – | – | –
10 nM | 92.6 | 78.7 | – | 69 | 95.4 | 63 | 96.7 | 76.7 | 72.7
30 nM | – | – | 101 | – | – | – | – | – | –
100 nM | – | – | 101 | – | – | – | – | – | –
1000 nM | 36.1 | 30.3 | – | 47.1 | 64 | 21.4 | 27.1 | 38.2 | 54.4
10000 nM | 33.4 | 17.7 | – | 33.1 | 44.9 | 20 | 22.1 | 21.5 | 25.6

Details | drug sensitivity score
[10] | 0
[11] | 0
[12] | 0
[13] | 0
[14] | 6.54
[15] | 0
[16] | 0
[17] | 0
[18] | 0
[19] | 0
[20] | 0
[21] | 0
[22] | 0
[23] | 12.7
[24] | 0
[25] | 0

O=C(c1ccc(OCCN2CCCCC2)cc1)c1c(-c2ccc(O)cc2)sc2cc(O)ccc12 [Raloxifene]
normalised viability [%]
Details | [1] | [2] | [3] | [4] | [5] | [6] | [7] | [8] | [9]
3 nM | – | – | 102 | – | – | – | – | – | –
10 nM | 100 | 77.5 | – | 114 | 95.7 | 89.3 | 112 | 104 | 99.8
30 nM | – | – | 99.7 | – | – | – | – | – | –
100 nM | – | – | 93.7 | – | – | – | – | – | –
1000 nM | 103 | 101 | – | 98.7 | 103 | 93.3 | 102 | 86.3 | 86.2
10000 nM | 113 | 56.8 | – | 96.8 | 102 | 96.2 | 92.8 | 76.2 | 80.6

Details | drug sensitivity score
[10] | 0
[11] | 0
[12] | 1.42
[13] | 0
[14] | 0
[15] | 0
[16] | 0
[17] | 0
[18] | 0.798
[19] | 0
[20] | 1.26
[21] | 2.23
[22] | 0
[23] | 0
[24] | 0
[25] | 0
